Assay results published in patent publication US20090029949A1, “GPCR Ligands Identified by Computational Modeling” (priority 2006, published 2009).
“Also recorded” adds a separate entry of the source. Peptide text beside a SMILES is read from it. * marks the point of attachment. Dnp = O=[N+]([O-])c1ccc(*)c([N+](=O)[O-])c1

How the values were obtained:
LPA2 = LPA2 (Homo sapiens, UniProt Q9HBW0); assay: LPA agonist/antagonist activity at LPA2 (Table 2); type: cell-based; conditions: for LPA2 effect: result in words
LPA1 = LPA1 (Homo sapiens, UniProt Q92633); assay: LPA agonist/antagonist activity at LPA1 (Table 2); type: cell-based; conditions: for LPA1 effect: result in words
LPA3 = target: T1, LPA3 (Homo sapiens, UniProt Q9UBY5); assay: LPA agonist/antagonist activity at LPA3 (Table 2); type: cell-based; conditions: for LPA3 effect: result in words; for LPA3 inhibition of 200 nM LPA response at 30JM: compound at 30JM
T1 sequence (Q9UBY5 1-353): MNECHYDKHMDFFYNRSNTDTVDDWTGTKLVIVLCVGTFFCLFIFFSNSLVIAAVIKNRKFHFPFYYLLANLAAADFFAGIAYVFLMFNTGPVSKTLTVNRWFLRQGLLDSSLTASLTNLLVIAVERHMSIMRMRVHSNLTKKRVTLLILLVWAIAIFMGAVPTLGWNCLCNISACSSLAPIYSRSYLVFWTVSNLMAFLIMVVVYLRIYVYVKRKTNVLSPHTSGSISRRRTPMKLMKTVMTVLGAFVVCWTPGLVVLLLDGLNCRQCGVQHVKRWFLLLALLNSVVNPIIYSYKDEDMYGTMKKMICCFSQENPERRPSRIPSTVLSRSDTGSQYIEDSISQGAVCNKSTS

S1P1 mutant L3.36E = S1P1 mutant L3.36E (Homo sapiens, UniProt P21453, L128E); assay: [35S]GTPγS binding, S1P1 L3.36E; type: biochemical; design: expressed in transfected cells; host or cells: RH7777 (transient, pcDNA3.1); conditions: S1P1 L3.36E, result in words, compared with S1P
Method: (§1) RH7777 and HEK-293 cells (ATCC, Manassas, Va.) were maintained in Dulbecco's modified minimal essential medium (DMEM) containing 10% fetal bovine serum (Hyclone, Logan, Utah). Cells (2×10^6) were transfected with 2 μg of plasmid DNA with Effectene (Qiagen, Valencia, Calif.) according to the manufacturer's instructions, for 24 h. Before ligand binding and receptor activation assays, the cells were washed twice with serum-free DMEM and serum-starved for at least 6 h.
(§2) S1P1 Receptor Activation Assays Receptor functional assays were performed in transiently transfected RH7777 cells by measuring S1P-activated [^35S]GTPγS binding as previously described (28).

S1P1 mutant F5.48G = target: T2, S1P1 mutant F5.48G (Homo sapiens, UniProt P21453, F210G); assay: [35S]GTPγS binding, S1P1 F5.48G; type: biochemical; conditions: S1P1 F5.48G, result in words, compared with S1P
T2 construct: expressed in transfected cells
Method: as §1, §2

S1P1 mutant W6.48A = target: T3, S1P1 mutant W6.48A (Homo sapiens, UniProt P21453, W269A); assay: [35S]GTPγS binding, S1P1 W6.48A; type: biochemical; conditions: S1P1 W6.48A, result in words, compared with S1P
T3 construct: expressed in transfected cells
Method: as §1, §2

S1P1 mutant V6.40L = target: T4, S1P1 mutant V6.40L (Homo sapiens, UniProt P21453, V261L); assay: [35S]GTPγS binding, S1P1 V6.40L; type: biochemical; conditions: S1P1 V6.40L, result in words
T4 construct: expressed in transfected cells; host or cells: RH7777
Method: as §1, §2

WT S1P1 = WT S1P1 (Homo sapiens, UniProt P21453); assay: Ligand-induced [35S]GTPγS binding, WT S1P1; type: biochemical; design: expressed in transfected cells; host or cells: RH7777 (transient, pcDNA3.1); conditions: for S1P1 receptor activation in the GTPγS activation assay: at 10 μM, versus vehicle; for S1P1 agonist character: result in words
Method: as §1, §2

Chain of LPA2 (Q9HBW0 whole entry, species assumed): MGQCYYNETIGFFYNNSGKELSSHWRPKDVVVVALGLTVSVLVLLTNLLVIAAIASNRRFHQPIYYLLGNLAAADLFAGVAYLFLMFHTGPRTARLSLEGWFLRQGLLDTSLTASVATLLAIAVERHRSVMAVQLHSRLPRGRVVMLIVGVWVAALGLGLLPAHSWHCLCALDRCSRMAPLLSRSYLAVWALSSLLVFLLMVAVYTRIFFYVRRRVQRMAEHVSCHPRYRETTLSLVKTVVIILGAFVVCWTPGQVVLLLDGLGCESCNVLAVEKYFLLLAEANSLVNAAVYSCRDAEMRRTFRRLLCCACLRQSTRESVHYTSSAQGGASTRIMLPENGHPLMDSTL
Chain of LPA1 (Q92633 whole entry, species assumed): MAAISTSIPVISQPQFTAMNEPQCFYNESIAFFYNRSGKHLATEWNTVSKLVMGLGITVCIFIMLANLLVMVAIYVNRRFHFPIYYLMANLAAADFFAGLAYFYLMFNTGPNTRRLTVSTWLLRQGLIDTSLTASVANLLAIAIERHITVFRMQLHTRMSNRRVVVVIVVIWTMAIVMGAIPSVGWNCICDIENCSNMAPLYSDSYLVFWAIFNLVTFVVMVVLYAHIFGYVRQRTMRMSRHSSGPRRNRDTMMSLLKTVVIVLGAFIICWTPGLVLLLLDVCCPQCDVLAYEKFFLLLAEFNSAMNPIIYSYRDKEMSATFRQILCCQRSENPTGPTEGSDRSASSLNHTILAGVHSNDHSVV
Chain of WT S1P1 (P21453 whole entry): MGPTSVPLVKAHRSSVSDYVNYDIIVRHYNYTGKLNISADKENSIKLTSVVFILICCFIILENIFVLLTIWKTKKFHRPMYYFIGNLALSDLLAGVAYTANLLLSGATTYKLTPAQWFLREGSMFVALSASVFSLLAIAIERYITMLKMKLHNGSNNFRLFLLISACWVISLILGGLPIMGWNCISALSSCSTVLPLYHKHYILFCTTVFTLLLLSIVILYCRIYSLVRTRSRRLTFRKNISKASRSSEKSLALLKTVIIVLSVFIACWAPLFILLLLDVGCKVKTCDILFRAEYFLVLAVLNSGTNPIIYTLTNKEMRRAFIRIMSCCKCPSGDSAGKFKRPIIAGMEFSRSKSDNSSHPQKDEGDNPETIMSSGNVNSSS
T4 sequence (P21453 whole entry V261L): as the sequence (P21453 whole entry) above, with V261L counted along it
Chain of S1P1 mutant L3.36E (P21453 whole entry L128E): as the sequence (P21453 whole entry) above, with L128E counted along it
T2 sequence (P21453 whole entry F210G): as the sequence (P21453 whole entry) above, with F210G counted along it
T3 sequence (P21453 whole entry W269A): as the sequence (P21453 whole entry) above, with W269A counted along it

O=C(O)CCC(NC(=O)OCc1ccccc1)C(=O)NC(Cc1ccccc1)C(=O)O (centres unmarked) [NSC 18760]
IC50 (LPA2): 20 nM | LPA2 Inhibition of 10 nM LPA response (LPA2): 53.3% | LPA1 effect (LPA1): No effect | IC50 (LPA3): 9 nM | LPA3 Inhibition of 200 nM LPA response (LPA3): 58.7%

O=P(O)(O)OC[C@H]1O[C@@H](n2cnc3c(NCc4ccccc4)ncnc32)C(O)C1O (some centres unmarked) [NSC 255523]
LPA2 effect (LPA2): No effect | LPA1 effect (LPA1): No effect | LPA3 effect (LPA3): PotentiatesLPA-inducedactivation

CCCC(=O)Nc1ncnc2c1ncn2C1OC2COP(=O)(O)OC2C1OC(=O)CCC (centres unmarked) [NSC 143108]
LPA2 effect (LPA2): No Effect | LPA1 effect (LPA1): Weak agonist | IC50 (LPA3): 1310 nM | LPA3 inhibition of 200 nM LPA response at 30JM (LPA3): 61.0%

FC(F)(F)c1cccc(-c2noc(-c3cc(-c4ccccc4)c(C(F)(F)F)s3)n2)c1 [SEW2871]
ligand-induced GTPγS activation (S1P1 mutant L3.36E): similarly impaired activation | ligand-induced GTPγS activation (S1P1 mutant F5.48G): similarly impaired activation | ligand-induced GTPγS activation (S1P1 mutant W6.48A): similarly impaired activation | ligand-induced GTPγS activation (S1P1 mutant V6.40L): slightly activated; also recorded: partial activation | ligand-induced GTPγS activation (S1P1 mutant V6.40L; listed as SE2871): dose-dependent partial activation

COc1ccc2c(c1)c(CC(=O)O)c(C)n2C(=O)c1ccc(Cl)cc1 [NSC 77541]
LPA2 effect (LPA2): No Effect | LPA1 effect (LPA1): Weak agonist | LPA3 inhibition of 200 nM LPA response at 30JM (LPA3): 76.2%

CCN(CC)CCOc1ccc(/C(C#N)=C\c2ccc(C(F)(F)F)cc2)cc1 [NSC59474]
S1P1 receptor activation in the GTPγS activation assay (WT S1P1): GTPγS activation greater than that of the vehicle | S1P1 agonist character (WT S1P1): partial agonists

NCC(=O)NC(CSc1ccc([N+](=O)[O-])cc1[N+](=O)[O-])C(=O)NC(CCC(=O)O)C(=O)O (centres unmarked) [NSC 161613] (H-Gly-Cys(Dnp)-Glu-OH; configuration not given here)
LPA2 effect (LPA2): No effect | LPA1 effect (LPA1): No effect | IC50 (LPA3): 24 nM | LPA3 Inhibition of 200 nM LPA response (LPA3): 69.8%

OC1C(O)[C@@H](COP(O)(O)=S)O[C@H]1n1cnc2c(NCc3ccccc3)ncnc21 (some centres unmarked)
LPA2 effect (LPA2): PotentiatesLPA-inducedactivation | LPA1 effect (LPA1): No effect | LPA3 effect (LPA3): No effect

Cn1c(=O)c2c(nc(C(=N)SCC(=O)O)n2C)n(C)c1=O [NSC 62586]
IC50 (LPA2): 172 nM | Ki (LPA2): 117 nM | IC50 (LPA1): 234 nM | Ki (LPA1): 91.7 nM | IC50 (LPA3): 35 nM | Ki (LPA3): 15.7 nM

COC(=O)C(CCC(=O)O)N1C(=O)c2ccccc2C1=O (centres unmarked) [NSC 16540]
IC50 (LPA2): 100 nM | LPA2 Inhibition of 10 nM LPA response (LPA2): 50.9% | LPA1 effect (LPA1): No effect | IC50 (LPA3): 231 nM | LPA3 Inhibition of 200 nM LPA response (LPA3): 59.7%

O=C(c1ccccc1Cc1ccc2ccc(C(F)(F)F)cc2c1)c1cccc2ccccc12 [NSC99548]
S1P1 receptor activation in the GTPγS activation assay (WT S1P1): GTPγS activation greater than that of the vehicle | S1P1 agonist character (WT S1P1): partial agonists

O=C(O)/C=C/C(=O)Nc1cccc(NC(=O)/C=C/C(=O)O)c1C(=O)O [NSC 47091]
IC50 (LPA2): 355 nM | LPA2 Inhibition of 10 nM LPA response (LPA2): 53.5% | LPA1 effect (LPA1): No effect | IC50 (LPA3): 30 nM | LPA3 Inhibition of 200 nM LPA response (LPA3): 81.7%

O=C(NC(Cc1ccc2c(c1)OCO2)C(=O)O)c1ccccc1 (centres unmarked) [NSC 10188]
IC50 (LPA2): 6900 nM | LPA2 inhibition of 200 nM LPA response at 30JM (LPA2; 200 nM LPA, compound at 30JM): 55.8% | LPA1 effect (LPA1): Weak agonist | LPA3 effect (LPA3): No effect

COc1ccc(C(=O)CCCC(=O)O)c(OC)c1O [NSC 10167]
IC50 (LPA2): 88 nM | LPA2 Inhibition of 10 nM LPA response (LPA2): 47.4% | LPA1 effect (LPA1): No Effect | IC50 (LPA3): 517 nM | LPA3 Inhibition of 200 nM LPA response (LPA3): 49.9%

Cc1cc2nc3c(=O)[nH]c(=O)nc-3n(CCOC(=O)CCC(=O)O)c2cc1C [NSC 3066]
IC50 (LPA2): 167 nM | Ki (LPA2): 78.7 nM | IC50 (LPA1): 197 nM | Ki (LPA1): 91.7 nM | IC50 (LPA3): 103 nM | Ki (LPA3): 44.8 nM
